# Experimental data: article PMC9655001, “Isolation and Identification of Antioxidative Peptide from Goose Liver Hydrolysate to Ameliorate Alcohol-Mediated Oxidative Stress Damage in HHL-5 Hepatocytes” (Molecules, 2022)
# Read-outs that look alike come from different tables or passages of the source. Marks after values point to notes of the source that are not given here. Ends that are not written are not given here. Peptide text beside a SMILES is read from it.
# Columns and labels:
# [1] = cited from earlier work
# Source text: Typically, oligopeptides containing 2 to 10 amino acid residues are considered to have a higher antioxidant activity compared with their parent protein [14]. Free radicals, linked to oxidative stress, are highly reactive with other molecules, including vital DNA and proteins, the destruction of which can damage or kill cells. Among the many free radicals, the ∙OH radical is commonly considered as one of the most harmful highly react ...
# HHL-5 hepatocytes [2] = test: Cell viability by Cell Counting Kit-8
# Protocol: Furthermore, HHL-5 hepatocytes were cultured with different concentrations of GLHP (100 μg/mL, 200 μg/mL, 300 μg/mL, 400 μg/mL, and 500 μg/mL) to evaluate the cytotoxicity of GLHP, as described above. The ability of GLHP to protect HHL-5 hepatocytes was evaluated. […] In the CTRL group, a culture medium supplemented with an equal volume of the PBS was added and incubated for 12 h, and the culture medium was then substituted with an equal volume of the PBS and incubated for 48 h. Finally, the culture media and cells were collected for further analysis.
# The Cell Counting Kit-8 (CCK-8, Beijing Solarbio Science and Technology Co., Ltd., Beijing, China) was used to assess the HH-5 cell viability; the testing procedures were performed according to the manufacturer’s protocol. Adherent cells in 96-well culture plates were treated and then incubated with a CCK solution for 2 h; the absorbance was detected at a wavelength of 450 nm with the multifunctional microplate reader.
# HHL-5 hepatocytes [3] = test: AST level in model of alcohol-mediated HHL-5 hepatocytes damage; format: cell-based, human; details: alcohol 500 mmol/L, 48 h, no peptide pre-treatment (model group)
# Protocol: (§1) Cells were collected with PBS, the activity of ALT (C009-2-1), AST (C0010-2-1), and MDA (A003-1) in cell supernatant and the SOD (A001-3), GSH-Px (A005), CAT (A007-1-1), and ROS (E004-1-1) in the cells were measured using corresponding assay kits (Nanjing Jiancheng Biotechnology Institute, Nanjing, China) according to the manufacturer’s instructions.
# ALT and AST: 5 μL of sample was mixed with 20μL of ALT/AST matrix solution and the reaction was performed at 37 °C for 30 min. Then, 20 μL of 2, 4-dinitrophenylhydrazine solution was added and the reaction was performed at 37 °C for 20 min. Finally, 200 μL of sodium hydroxide solution (0.4 mol/L) was added and the reaction was performed at room temperature for 15 min. The absorbance value was measured at a 510 nm wavelength by a multifunctional microplate reader.
# HHL-5 hepatocytes [4] = test: H2O2 level in alcohol-mediated HHL-5 hepatocytes; format: cell-based, human; details: alcohol alone (EtOH model group)
# Protocol: The cell suspension was inoculated into 96-well plates (4 × 10^3 per well) and added to the culture medium containing: DMEM-F12 (1:1, HyClone, Logan, UT, USA), 10% FBS (Gibco, New York, NY, USA), 1% P/S (100 U/L), 15 mmol/L of HEPES, and 2.5 mmol/L of L-glutamine, then the plates with cells were placed in a 5% CO2 humidified atmosphere at 37 °C for 24 h. […] Furthermore, HHL-5 hepatocytes were cultured with different concentrations of GLHP (100 μg/mL, 200 μg/mL, 300 μg/mL, 400 μg/mL, and 500 μg/mL) to evaluate the cytotoxicity of GLHP, as described above. The ability of GLHP to protect HHL-5 hepatocytes was evaluated. […] In the CTRL group, a culture medium supplemented with an equal volume of the PBS was added and incubated for 12 h, and the culture medium was then substituted with an equal volume of the PBS and incubated for 48 h. Finally, the culture media and cells were collected for further analysis.
# HHL-5 hepatocytes [5] = test: MDA level in model of alcohol-mediated HHL-5 hepatocytes damage; format: cell-based, human; details: alcohol 500 mmol/L, 48 h, no peptide pre-treatment (model group)
# Protocol: as §1
# MDA: 0.1 mL of sample was mixed with 0.1 mL of reagent one, 3 mL of reagent two, and 1 mL of reagent three in the 10 mL centrifuge tube. Then, the centrifuge tube was centrifuged at 4 °C, 3500× g for 10 min after being heated in a boiling water bath for 40 min. The absorbance value of 200 μL of the supernatant was measured at a 532 nm wavelength by a multifunctional microplate reader.
# HHL-5 hepatocytes [6] = test: CAT activity in alcohol-mediated HHL-5 hepatocytes; format: cell-based, human; details: alcohol alone (EtOH model group)
# Protocol: as §1
# CAT: 0.05 mL of sample was mixed with 1.0 mL reagent one, 0.1 mL reagent two and performed at 37 °C for 1 min. Then, 1.0 mL reagent three and 0.1 mL reagent four were mixed with the miscible liquids. The absorbance value was measured at 405 nm wavelength by a multifunctional microplate reader.
# HHL-5 hepatocytes [7] = test: GSH-Px activity in alcohol-mediated HHL-5 hepatocytes; format: cell-based, human; details: alcohol alone (EtOH model group)
# Protocol: as §1
# GSH-Px: 0.2 mL of sample was mixed with 0.2 mL of […] and performed at 37 °C for 5 min. Then, 0.1 mL of reagent one was added and performed at 37 °C for 5 min. Subsequently, the miscible liquids were centrifuged at 4 °C, 3500× g for 10 min. One mL of supernatant was mixed with 1 mL of reagent three, 0.25 mL of reagent four, and 0.05 mL of reagent five and performed at room temperature for 15 min. The absorbance value was measured at a 412 nm wavelength by a multifunctional microplate reader.
# HHL-5 hepatocytes [8] = test: ROS level in alcohol-mediated HHL-5 hepatocytes (DCFH-DA); format: cell-based, human; details: alcohol alone (EtOH model group)
# Protocol: as §1
# ROS: A DCFH-DA probe was added directly to the serum-free medium: DCFH-DA was generally diluted with a serum-free medium at a final concentration of 10 µM at 1:1000. After removing the culture medium, an appropriate volume of diluted DCFH-DA was added. The volume added should be sufficient to cover the cells. Usually, no less than 1 mL of diluted DCFH-DA is added to one well of a 6-well plate. A sample of cells without a probe and with a medium only was set as negative for the control. Positive control: take a sample of cells with a probe and add reactive oxygen species to induce the cells. The cells were incubated at 37 °C for 20 min […] (mixed upside down every 5 min to make full contact between the probe and cell). […] In general, an obvious green fluorescence can be observed in the positive control cells after 30 min of stimulation. […] It can also be detected according to FITC fluorescence detection conditions. The results were expressed as fluorescence values.
# HHL-5 hepatocytes [9] = test: SOD activity in alcohol-mediated HHL-5 hepatocytes; format: cell-based, human; details: alcohol alone (EtOH model group)
# Protocol: as §1
# SOD: 20 μL of sample was mixed with 20 μL enzyme working liquid and 200 μL of substrate application solution. Then, miscible liquids were performed at 37 °C for 20 min. The absorbance values of the miscible liquids were measured at a 450 nm wavelength by a multifunctional microplate reader.
# [10] = ∙OH radical scavenging activity; details: 1 mg/mL, 37 °C 60 min, absorbance 536 nm, mean ± SD
# Protocol: (§2) The antioxidant activity of the target peptides was evaluated by detecting the hydroxyl radical scavenging activity (∙OH), DPPH radical scavenging activity, and Fe^2+ chelating ability; the method was performed according to Zhu et al. with some modifications.
# Measurement of the ∙OH radical scavenging activity. The sample group was a mixture of 0.6 mL of 1, 10-phenanthroline monohydrate (5 mmol/L) and 0.4 mL of phosphate buffer (0.2 M, pH 7.4), and then 0.6 mL of LPLPFP (1 mg/mL), 0.6 mL of EDTA (15 mmol/L), and 0.6 mL of FeSO4 (5 mmol/L) were mixed thoroughly. After mixing, 0.8 mL of H2O2 (0.1%) was added and incubated at 37 °C for 60 min. Afterward, the mixture absorbance was measured at 536 nm with the multifunctional microplate reader. The control group contained the same solutions as the sample group, except deionized water was used instead of the sample. The blank group contained the same solution as the control group, except deionized water was used instead of H2O2. The results were determined according to the equation. hydroxyl radical scavenging activity (%) = (As − Ac) ÷ (Ab − Ac) × 100% where As, Ac, and Ab represent the absorbance of the sample and the control and blank groups, respectively. BHT was used as a positive control.
# [11] = DPPH radical scavenging activity; details: 1 mg/mL, 0.2 mmol/L DPPH, 30 min room temperature, absorbance 517 nm, mean ± SD
# Protocol: as §2
# Measurement of the DPPH radical scavenging activity. One mL of the LPLPFP (dissolved in deionized water) was mixed with 1 mL of 0.2 mmol/L DPPH (in 95% ethanol) as the sample group; 1 mL of deionized water was mixed with 1 mL of ethanol (95%) as the blank group; and 1 mL of 0.2 mmol/L DPPH was mixed with 1 mL of ethanol (95%) as the control group. The mixture was agitated using a vortex and incubated for 30 min at room temperature, protected from light, and then the absorbance at 517 nm was measured. The scavenging activity of LPLPFP and BHT was calculated using the following equation:DPPH radical scavenging activity (%) = 1 − [ (As − Ac) ÷ (Ab − Ac)] × 100% where As, Ac, and Ab represent the absorbance of the sample, the control, and the blank groups, respectively. BHT was used as a positive control.
# Fe^2+ chelating ability = details: 1 mg/mL, ferrozine, 10 min room temperature, absorbance 562 nm, mean ± SD
# Protocol: as §2
# Measurement of the Fe^2+ chelating ability. Briefly, 1 mL of LPLPFP was mixed with 0.05 mL of FeCl2 (2 mmol/L) and 0.2 mL of ferrozine (5 mmol/L). The mixture was vortexed and kept at room temperature for 10 min prior to the measurement of the absorbance at 562 nm (As). The control (Ac) contained everything except using deionized water instead of LPLPFP. The chelating ability was calculated according to the equation Fe^2+chelating ability (%) = (Ac − As) ÷ Ac × 100% where As and Ac represent the absorbance of the sample and the control groups. BHT was used as a positive control.
# pepsin and trypsin = test: Pepsin-trypsin simulated GI digestion stability; format: in vitro ADME; details: 400 μg/mL peptide; simulated gastric juice (pepsin, pH 3.0) 37 °C 2 h, then simulated intestinal fluid (trypsin, bile salt) 2 h; read-out: retained hepatoprotective activity (ALT, AST, MDA) in HHL-5 model
# Protocol: The stability of LPLPFP in response to pepsin and trypsin in the simulation of GI digestion in vitro was examined based on Xie et al.. A 1 L ultrapure water solution containing 2 g of NaCl and 3.2 g of pepsin (3000 U/mg protein) with a pH of 3.0 (adjusted with a 6 mol/L HCl solution), was configured as simulated gastric juice. In addition, 0.68 g of potassium dihydrogen phosphate, 7.7 mL of 0.2 mol/L NaOH solution, 1 g of trypsin (285 U/mg protein), and 6 g of bile salt were added and dissolved in 70 mL of ultrapure water with a pH of 7.6 (adjusted with a 0.2 mol/L NaOH solution) and the volume was filled with ultrapure water up to 1 L (as simulated intestinal fluid). The 400 μg/mL of peptide solution at pH 3.0 (adjusted with a 1 mol/L HCl solution) and 5 mL of simulated gastric juice was mixed and shaken at 37 °C for 2 h to simulate gastric digestion, then the mixture was terminated by being heated at 100 °C for 10 min, the pH was adjusted to 7.2 with a 0.2 mol/L NaOH solution, and 5 mL of simulated intestinal juice was added to the solution, and the same conditions were used for simulating intestinal digestion. Finally, the digestive liquid was transferred to the ultrafiltration centrifuge tube (1 kDa) and centrifuged at 4 °C, 8500× g for 20 min; the filtered solutions were desalted by a polar enhanced polymer (PEP) column (500 mg/6 mL) and dried in a vacuum freeze-dryer.
molecule,measurement,setting,value
NPPKFD,Fe^2+ chelating ability (source: scavenging rate of Fe^2+),[1]; 1 mg/mL ref 3,66.92%
"CCO [alcohol, anhydrous ethanol]",viability of HHL-5 hepatocytes,"HHL-5 hepatocytes [2]; 500 mmol/L alcohol, 48 h, CCK-8, mean ± SD, at least triplicates",approximately 49.28 ± 5.12%
same,median lethal dose of alcohol for HHL-5 hepatocytes (LD50),"HHL-5 hepatocytes [2]; 48 h incubation, CCK-8",500 mmol/L
same,level of AST in the EtOH group,HHL-5 hepatocytes [3],376.57 ± 32.83 U/L
same,level of H2O2 after stimulation with alcohol,HHL-5 hepatocytes [4],43860 ± 3570 µM
same,level of MDA in the EtOH group,HHL-5 hepatocytes [5],2.436e+07 ± 2.85e+06 µM
same,level of CAT after administration of alcohol,HHL-5 hepatocytes [6],24.87 ± 3.28 U/mg prot
same,level of GSH-Px after administration of alcohol,HHL-5 hepatocytes [7],49.26 ± 4.82 U/mg prot
same,level of ROS after stimulation with alcohol,HHL-5 hepatocytes [8],95.23 ± 6.54 U/mg prot
same,level of SOD after administration of alcohol,HHL-5 hepatocytes [9],31.28 ± 4.53 U/mg prot
Cc1cc(C(C)(C)C)c(O)c(C(C)(C)C)c1 [BHT],∙OH Radical Scavenging Activity (%),[10],79.38 ± 2.03 ^b %
same,DPPH Radical Scavenging Activity (%),[11],90.56 ± 1.73 ^b %
same,Fe^2+ Chelating Ability (%),Fe^2+ chelating ability,14.39 ± 2.46 ^b %
Gly-Lys-Phe-Asn-Val,Fe^2+ chelating ability (source: scavenging rate of Fe^2+),[1]; 1 mg/mL ref 16,63.20%
"CC(C)C[C@H](NC(=O)[C@@H]1CCCN1C(=O)[C@@H](N)CC(C)C)C(=O)N1CCC[C@H]1C(=O)N[C@@H](Cc1ccccc1)C(=O)N1CCC[C@H]1C(=O)O [LPLPFP, Leu-Pro-Leu-Pro-Phe-Pro] (H-LPLPFP-OH)",resistance to pepsin-trypsin simulated GI digestion,pepsin and trypsin,strong resistance
